Source: US9403830B2, “Inhibitors of leukotriene production” (Boehringer Ingelheim International GmbH, priority 2012, dated 2016)

Columns and labels:
human LTA4 hydrolase = target: T1, human LTA4 hydrolase (Homo sapiens, UniProt P09960); assay: LTA4H Enzyme assay (peptidase, Arg-AMC cleavage); assay type: biochemical; settings: LTA4H enzyme 1 nM, Arg-AMC substrate 50 μM, room temperature 1 h, fluorescence 380/460 nm
T1 sequence (P09960 1-611): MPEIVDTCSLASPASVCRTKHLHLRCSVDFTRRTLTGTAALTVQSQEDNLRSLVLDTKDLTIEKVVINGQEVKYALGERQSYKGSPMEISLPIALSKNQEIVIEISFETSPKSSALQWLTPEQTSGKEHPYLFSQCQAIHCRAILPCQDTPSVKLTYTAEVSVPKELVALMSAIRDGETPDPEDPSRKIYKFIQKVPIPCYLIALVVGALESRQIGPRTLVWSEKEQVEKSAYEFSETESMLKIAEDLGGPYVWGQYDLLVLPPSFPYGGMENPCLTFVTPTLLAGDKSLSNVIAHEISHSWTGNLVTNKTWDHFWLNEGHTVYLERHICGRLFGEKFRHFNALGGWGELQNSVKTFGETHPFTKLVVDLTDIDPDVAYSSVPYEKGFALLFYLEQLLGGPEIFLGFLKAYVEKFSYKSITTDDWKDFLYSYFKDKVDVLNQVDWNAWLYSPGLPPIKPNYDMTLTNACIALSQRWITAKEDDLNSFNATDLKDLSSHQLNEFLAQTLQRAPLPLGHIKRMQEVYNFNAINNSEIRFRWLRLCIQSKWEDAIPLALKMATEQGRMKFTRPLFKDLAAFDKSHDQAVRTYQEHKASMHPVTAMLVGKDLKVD
Method in brief: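 Human LTA4H (1 nM final) incubated with compound and Arg-AMC (50 μM final) in 50 mM Tris-HCl pH 7.5, 100 mM KCl, 0.5% BSA, 1 h at room temperature. Product read as AMC fluorescence (ex 380/em 460 nm); IC50 reported.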

[1] = tested on: LTB4 synthesis in human whole blood; assay: human whole blood (HWB) assay, inhibition of LTB4 production; assay type: cell-based; settings: heparinized human whole blood, calcimycin 20 μM stimulation, plasma LTB4
Method in brief: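 Heparinized human whole blood preincubated with compound 15 min at 37 °C, then stimulated with 20 μM (final) calcimycin for 30 min at 37 °C. Plasma LTB4 measured by antibody-based HTRF; IC50 reported.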

Structure (SMILES)	IC50 (human LTA4 hydrolase)	IC50 [1]
CC(=O)NC1CCN(CCCn2ncc3cc(Oc4ccc(-c5ccn[nH]5)cc4)ccc32)CC1 [Example 109, N-[1-(3-{5-[4-(2H-Pyrazol-3-yl)-phenoxy]-indazol-1-yl}-propyl)-piperidin-4-yl]-acetamide]	0.47 nM	230 nM
c1cc(-c2ccc(Oc3ccc4[nH]c(CN5CCCCCC5)nc4c3)cc2)[nH]n1 [Example 163, 2-Azepan-1-ylmethyl-5-[4-(2H-pyrazol-3-yl)-phenoxy]-1H-benzoimidazole]	0.065 nM	120 nM
c1cc(-c2ccc(Oc3ccc4nc(CN5CCC5)ccc4c3)nc2)[nH]n1 [Example 21, 2-Azetidin-1-ylmethyl-6-[5-(2H-pyrazol-3-yl)-pyridin-2-yloxy]-quinoline]	0.22 nM	86 nM
CC(=O)N1CCN(CCn2ccc3cc(Oc4ccc(-c5ccn[nH]5)cn4)ccc32)CC1 [Example 224, 1-[4-(2-{5-[5-(2H-Pyrazol-3-yl)-pyridin-2-yloxy]-indol-1-yl}-ethyl)-piperazin-1-yl]-ethanone]	2.3 nM	540 nM
C[C@@H]1CCCCN1Cc1nc2cc(Oc3ccc(-c4ccn[nH]4)cc3)ccc2[nH]1 [Example 165, 2-((R)-2-Methyl-piperidin-1-ylmethyl)-5-[4-(2H-pyrazol-3-yl)-phenoxy]-1H-benzoimidazole]	0.075 nM	120 nM
COCCN(CCOC)Cc1nc2cc(Oc3ccc(-c4ccn[nH]4)cc3)ccc2[nH]1 [Example 186, Bis-(2-methoxy-ethyl)-{5-[4-(2H-pyrazol-3-yl)-phenoxy]-1H-benzoimidazol-2-ylmethyl}-amine]	0.23 nM	150 nM
c1cc(-c2ccc(Oc3ccc4[nH]c(CNC5CCCOC5)nc4c3)cc2)[nH]n1 (centres unmarked) [Example 181, {5-[4-(2H-Pyrazol-3-yl)-phenoxy]-1H-benzoimidazol-2-ylmethyl}-(tetrahydro-pyran-3-yl)-amine]	0.21 nM	150 nM
OC(C1CCN(Cc2nc3cc(Oc4ccc(-c5ccn[nH]5)cc4)ccc3[nH]2)CC1)C(F)(F)F (centres unmarked) [Example 71, 2,2,2-Trifluoro-1-(1-{5-[4-(2H-pyrazol-3-yl)-phenoxy]-1H-benzoimidazol-2-ylmethyl}-piperidin-4-yl)-ethanol]	0.14 nM	260 nM
CC(C)N1CCN(Cc2nc3cc(Oc4ccc(-c5ccn[nH]5)cc4)ccc3[nH]2)CC1 [Example 64, 2-(4-Isopropyl-piperazin-1-ylmethyl)-5-[4-(2H-pyrazol-3-yl)-phenoxy]-1H-benzoimidazole]	0.14 nM	180 nM
Cc1nc2ccc(Oc3ccc(-c4ccn[nH]4)cc3)cc2cc1CN1CCCC1 [Example 256, 2-Methyl-6-[4-(2H-pyrazol-3-yl)-phenoxy]-3-pyrrolidin-1-ylmethyl-quinoline]	1.6 nM	480 nM
NC(=O)C1CCN(Cc2ccc3cc(Oc4ccc(-c5ccn[nH]5)cn4)ccc3c2)CC1 [Example 5, 1-{6-[5-(2H-Pyrazol-3-yl)-pyridin-2-yloxy]-naphthalen-2-ylmethyl}-piperidine-4-carboxylic acid amide]	0.46 nM	220 nM
CC[C@H](C)NCc1nc2cc(Oc3ccc(-c4ccn[nH]4)cc3)ccc2[nH]1 [Example 161, ((S)-sec-Butyl)-{5-[4-(2H-pyrazol-3-yl)-phenoxy]-1H-benzoimidazol-2-ylmethyl}-amine]	0.14 nM	120 nM
O=C(CO)N1CCCN(Cc2ccc3cc(Oc4ccc(-c5ccn[nH]5)cn4)ccc3n2)CC1 [Example 140, 2-Hydroxy-1-(4-{6-[5-(2H-pyrazol-3-yl)-pyridin-2-yloxy]-quinolin-2-ylmethyl}-[1,4]diazepan-1-yl)-ethanone]	0.93 nM	200 nM
CC(=O)N1CCN(CCn2cc3cc(Oc4ccc(-c5ccn[nH]5)cc4)ccc3n2)CC1 [Example 93, 1-[4-(2-{5-[4-(2H-Pyrazol-3-yl)-phenoxy]-indazol-2-yl}-ethyl)-piperazin-1-yl]-ethanone]	0.58 nM	150 nM
c1cc(-c2ccc(Oc3ccn4cc(CN5CCOCC5)nc4c3)cc2)[nH]n1 [Example 257, 2-Morpholin-4-ylmethyl-7-[4-(2H-pyrazol-3-yl)-phenoxy]-imidazo[1,2-a]pyridine]	2.5 nM	650 nM
CCN(CC)Cc1nc2cc(Oc3ccc(-c4ccn[nH]4)cc3)ccc2[nH]1 [Example 152, Diethyl-{5-[4-(2H-pyrazol-3-yl)-phenoxy]-1H-benzoimidazol-2-ylmethyl}-amine]	0.1 nM	71 nM
O=C(CNCc1ccc2cc(Oc3ccc(-c4ccn[nH]4)cn3)ccc2n1)N1CCCC1 [Example 45, 2-({6-[5-(2H-Pyrazol-3-yl)-pyridin-2-yloxy]-quinolin-2-ylmethyl}-amino)-1-pyrrolidin-1-yl-ethanone]	2.8 nM	420 nM
COCC1CCN(Cc2nc3cc(Oc4ccc(-c5ccn[nH]5)cc4)ccc3[nH]2)C1 (centres unmarked) [Example 166, 2-(3-Methoxymethyl-pyrrolidin-1-ylmethyl)-5-[4-(2H-pyrazol-3-yl)-phenoxy]-1H-benzoimidazole]	0.21 nM	120 nM
COC[C@H](C)NCc1nc2cc(Oc3ccc(-c4ccn[nH]4)cc3)ccc2[nH]1 [Example 189, ((S)-2-Methoxy-1-methyl-ethyl)-{5-[4-(2H-pyrazol-3-yl)-phenoxy]-1H-benzoimidazol-2-ylmethyl}-amine]	0.23 nM	160 nM
CN(Cc1nc2cc(Oc3ccc(-c4ccn[nH]4)cc3)ccc2[nH]1)[C@H]1CCCC[C@@H]1O [Example 229, (1S,2S)-2-(Methyl-{5-[4-(2H-pyrazol-3-yl)-phenoxy]-1H-benzoimidazol-2-ylmethyl}-amino)-cyclohexanol]	0.22 nM	190 nM
c1cc(-c2ccc(Oc3ccc4[nH]c(C5(N6CCOCC6)CC5)nc4c3)cc2)[nH]n1 [Example 59, 2-(1-Morpholin-4-yl-cyclopropyl)-5-[4-(2H-pyrazol-3-yl)-phenoxy]-1H-benzoimidazole]	0.13 nM	130 nM
O=C1OCCN1C1CCN(Cc2ccc3cc(Oc4ccc(-c5ccn[nH]5)cn4)ccc3n2)CC1 [Example 11, 3-(1-{6-[5-(2H-pyrazol-3-yl)-pyridin-2-yloxy]-quinolin-2-ylmethyl}-piperidin-4-yl)-oxazolidin-2-one]	0.65 nM	180 nM
CN(Cc1nc2cc(Oc3ccc(-c4ccn[nH]4)cc3)ccc2[nH]1)C1CCOCC1 [Example 230, Methyl-{5-[4-(2H-pyrazol-3-yl)-phenoxy]-1H-benzoimidazol-2-ylmethyl}-(tetrahydro-pyran-4-yl)-amine]	0.19 nM	200 nM
CC[C@@H](C)N(C)Cc1nc2cc(Oc3ccc(-c4ccn[nH]4)cc3)ccc2[nH]1 [Example 80, ((R)-sec-Butyl)-methyl-{5-[4-(2H-pyrazol-3-yl)-phenoxy]-1H-benzoimidazol-2-ylmethyl}-amine]	0.09 nM	98 nM
c1cc(-c2ccc(Oc3ccc4nc(CN5CCOCC5)cn4c3)cc2)[nH]n1 [Example 250, 2-Morpholin-4-ylmethyl-6-[4-(2H-pyrazol-3-yl)-phenoxy]-imidazo[1,2-a]pyridine]	0.57 nM	210 nM
